Measured values: patent US11185527B2, “Methods and compositions relating to steroid hormone receptor-dependent cancers” (Wayne State University, priority 2017, dated 2021)
“And” between values parts separate entries of the source, which are not always exact repeats. Equal entries are not always repeated.

Experiments:
[1] = tested on: ARE-dependent promoter activation by AR; assay: Counter screening assay: ARE-luciferase reporter in recombinant HeLa cells expressing AR; assay type: cell-based, human; conditions: testosterone-treated recombinant HeLa cells
Text: FIG. 6B is a schematic diagram of the reporter system for the counter screening assay. Recombinant HeLa cells used in this assay are identical to the primary screening cells except for the absence of Gal4-ELK1 and substitution of the Gal4 elements in the promoter with a canonical ARE. In this case, testosterone causes cytosolic AR to translocate to the nucleus and bind to the ARE in the promoter resulting in activation of the luciferase reporter.
The cells generated for counter screening, are HeLa cells stably transduced with a lentiviral plasmid construct containing a minimal promoter-luciferase reporter and an upstream androgen response element (ARE) sequence. These HeLa cells were also transduced with a lentiviral expression plasmid encoding the full-length AR. These lentiviral constructs were made as follows. Custom synthesized PCR primers were used to amplify and clone the ARE sequence from a pG5luc plasmid construct containing an ARE sequence element into the pGreenFire1 ™-mCMV-EF1-Neo (Plasmid) at SpeI (upstream) and BamHI (downstream) sites. pG5luc Vector is well known and the complete sequence has NCBI accession #AF264724. The ARE containing pG5luc plasmid is described in detail in Patki et al., 2013, J Biol Chem, 288:11047-11065. The lentiviral vector expressing ARE-luciferase reporter was then packaged in lentivirus and parental HeLa cells were infected as described below under the heading “Lentivirus-mediated-Transduction.” After 72h of infection, 400 ug/mL of Geneticin was added to the culture medium to select for the transduced cells. These cells were then infected with the lentivirus containing the full length AR expression plasmid described above. After 72h of infection, 2 ug/mL of Puromycin was added to the culture medium to select for the transduced cells. Clonal cells harboring both the ARE-promoter-luciferase reporter and also stably expressing AR were then isolated using cloning cylinders as described above. The selected clones were further expanded and then tested for luciferase induction by testosterone. The clone that gave the greatest luciferase signal to noise ratio in response to testosterone treatment was then chosen for use in the counter screening assay for high throughput small molecule screening. All of the plasmid constructs generated above were sequenced to verify DNA sequences before, the constructs were used.
For high throughput screening, recombinant primary screening cells were first depleted of hormone by growing them for 24h in medium in which the serum used was heat-inactivated and charcoal-stripped. The cells were then plated in 384-well white flat bottom plates (5,000 cells/well) (Corning Product #3570) using a Multidrop (Thermo Fisher Scientific, Waltham, Mass.). […]

[2] = tested on: ELK1-dependent promoter activation by AR; assay: Primary screening assay: luciferase reporter in recombinant HeLa cells (Gal4-TATA-Luc, Gal4-ELK1, AR) treated with testosterone; assay type: cell-based, human; conditions: for inhibition of ELK1-dependent promoter activation by AR (in words): testosterone-treated recombinant HeLa cells, luciferase
Text: FIG. 6A is a schematic diagram of the reporter system for the primary screening assay. Recombinant HeLa cells used in this assay harbor the Gal4-TATA-Luc promoter-reporter, and stably express a Gal4-ELK1 fusion protein as well as the androgen receptor (AR). Gal4-ELK1 is bound to the Gal4 elements in the promoter. In the absence of testosterone (small circle), AR is localized in the cytoplasm. When testosterone is present it binds to AR causing AR to translocate to the nucleus where it then binds to Gal4-ELK1 and activates the downstream luciferase reporter.
HeLa HLR cells obtained from Dr. Johann Hofman (Innsbruck Medical University), which were originally designed to serve as a cell-based assay system to measure modulation of MAPK activity. HeLa HLR cells have a stably integrated minimal promoter-luciferase reporter containing five upstream Gal4 elements (Gal4-TATA-Luc) and also constitutively express a Gal4-ELK1 fusion protein in which the Gal4 DNA binding domain is substituted for the ETS DNA binding domain of ELK1. In order to produce recombinant cell lines for high throughput screening and counter screening of small molecule libraries, HeLa HLR were stably transduced with a vector expressing the full-length AR. A sequence encoding the full length AR (SEQ ID NO:9) was subcloned from the pCMV expression vector (Origene) into the pCDH-CMV-MCS-EF1-Puro cDNA Cloning and Expression Vector (System Biosciences) at NheI (upstream) and BamHI (downstream) sites. The lentiviral vector expressing full length AR was then packaged in lentivirus and the HeLa HLR cells were infected as described below in the sub-section “Lentivirus-mediated-Transduction.” After 72 hours (h) of infection, 2 ug/mL of puromycin was added to the culture medium to select for the transduced cells. The cells were plated at low density for colony formation (20-40 colonies) in a 100 mm dish. Clonal cells were isolated using cloning cylinders from CORNING (Cat. #3166-8). The selected clones were further expanded and then tested for luciferase induction by testosterone. The clone that gave the greatest luciferase signal to noise ratio in response to testosterone treatment was then chosen for use in the primary screening assay for high throughput small molecule screening.
For high throughput screening, recombinant primary screening cells were first depleted of hormone by growing them for 24h in medium in which the serum used was heat-inactivated and charcoal-stripped. The cells were then plated in 384-well white flat bottom plates (5,000 cells/well) (Corning Product #3570) using a Multidrop (Thermo Fisher Scientific, Waltham, Mass.). The plates were then incubated for 24h prior to adding test compounds. The following day test compounds from the LOPAC, Prestwick, or Maybridge Hitfinder libraries were added precisely in a 0.2 μL volume in the test wells using a Biomek FX liquid handler (Beckman Coutler, Break, Calif.) to achieve final media concentration of 10 μM of each test compound. Using the Multidrop (ThermoLab Systems, Helsinki, Finland), testosterone was added in addition to the test compounds to achieve a final media concentration of 10 nM. As the test compounds were re-constituted from powder stocks using dimethyl sulfoxide (DMSO) as the solvent, the final media concentration of DMSO was 0.4% v/v. For the assay negative control on each plate, one row of wells on each plate contained 10 nM testosterone and 0.4% v/v of DMSO. For the assay positive control on each plate, one row of wells on each plate contained 10 nM testosterone and 10 uM enzalutamide dissolved in DMSO (0.4% v/v of DMSO in the wells). The plates were incubated for 24h at 37° C. in 5% CO2. The medium was then aspirated leaving a residual volume 10 μl using an Elx 405-plate washer (Bio Tek U.S.). Then, 10 uL of the assay reagent Bright-Glo (Promega Corp., Madison Wis.) was added to each well. […]

AR negative cell lines = assay: Toxicity to AR negative cell lines; conditions: at low doses, concentration range of 1 uM-10 uM
[3] = Metabolism in pooled human liver microsomes (HLM) with or without NADPH; assay type: in vitro ADME
Description: BD UltraPool human liver microsomes (HLM) 150 and the NAPDH regenerating system solution A and B were obtained from Corning Inc. Pooled HLM were used to determine percentage of metabolism of 5,3′-Dihydroxyflavone and 5,3-Dihydroxy-4′-methylflavone. The compounds (20 μM) were co-incubated with HLM (0.05 mg/ml) in the presence or absence of NAPDH for 30 minutes in a 37° C. water bath. At the end of the microsome reaction, the reaction was quenched with 1000 μl ethyl acetate. The mixture was vortexed and centrifuged at 13,000 rpm for 15 minutes, the supernatant was then subjected to high-performance liquid chromatography with tandem mass spectrometry ([…]) analysis.

22Rv1 cells = assay: Cell monolayer growth assay (MTT); assay type: cell-based, human; conditions: enzalutamide up to 20 uM
Description: Twenty four hours after plating the 22Rv1 cells, they were treated with the indicated concentrations of KCI807 (FIG. 4C) or with the indicated concentrations of enzalutamide (ENZ) (FIG. 4D).
Twenty four hours after plating the cells, they were treated with the indicated concentrations of the compound.
FIG. 16D is a graph showing the effect of 5′-Fluoro-5,3′-Dihydroxyflavone at various concentrations on growth of 22Rv1 cells.
Cells were trypsinized and 3000-4000 cells/well were seeded in 96-well plates coated with poly-D-lysine. The cells were seeded in phenol red-free medium supplemented with 10% FBS, 100 units/ml penicillin, 100 μg/ml streptomycin, 2 mM L-glutamine mixture and sodium pyruvate (1 mM) for LNCaP cells and phenol red-free medium supplemented with 10% FBS, 100 units/ml penicillin, 100 μg/ml streptomycin and 2 mM L-glutamine mixture for VCaP, 22Rv1, DU145, HeLa, HEK293 and H1650 cells. The cells were grown at 37° C. in 5% CO2. Twenty four hours after seeding in the 96-well plates, the cells were treated with the indicated concentration of KCI807 or DMSO (vehicle). The cells were re-treated on Day 3 by removing half the volume of medium and replacing it with fresh treated medium. Cell viability was determined using the MTT assay from day zero until day five. MTT (10 μL, 5 mg/mL) was added to each well and incubated for 2h at 37° C. The formazan crystal sediments were dissolved in 100 μL of DMSO, and the absorbance at 570 nm was measured using the BioTek Synergy 2 Microplate Reader (BioTek, Winooski, Vt.). The assay was conducted in sextuplicate wells and values were normalized to day zero.

[4] = HLM 0.05 mg/ml, 30 minutes, 37° C.

O=c1cc(-c2cc(O)cc(F)c2)oc2cc(F)cc(O)c12 [5′,7-diflouro-5,3′-dihydroxyflavone]
inhibition of ARE-dependent promoter activation by AR (in words) [1]: inhibited
inhibition of ELK1-dependent promoter activation by AR (in words) [2]: inhibited
toxicity to AR negative cell lines (AR negative cell lines): toxic

COc1c(-c2ccc(O)c(O)c2)oc2cc(O)cc(O)c2c1=O [5,7,3′,4′-tetrahydroxy-3-methoxyflavone]
inhibition of ELK1-dependent promoter activation by AR (in words) [2]: lack of inhibition

O=c1cc(-c2cccc(O)c2)oc2cc(F)cc(O)c12 [7-Fluoro-5,3′-dihydroxyflavone]
inhibition of ARE-dependent promoter activation by AR (in words) [1]: inhibited
inhibition of ELK1-dependent promoter activation by AR (in words) [2]: inhibited

Cc1ccc(-c2cc(=O)c3c(O)cccc3o2)cc1O [4′-methyl-5,3′-dihydroxyflavone, 5,3′-dihydroxy-4′-methylflavone]
compound concentration after HLM incubation, Control (absence of NADPH), replicate [3, 4]: 1789 nM and 1770 nM and 1757 nM and 1773 nM and 1776 nM and 1782 nM
compound concentration after HLM incubation, NADPH treated, replicate [3, 4]: 1491 nM and 1513 nM and 1639 nM and 1651 nM and 1498 nM and 1501 nM
mean compound concentration, Control (absence of NADPH) [3, 4]: 1774 nM
mean compound concentration, NADPH treated [3, 4]: 1549 nM
percentage metabolized (%) ([3]; HLM 0.05 mg/ml, NADPH, 30 minutes, 37° C.): 12.7%
reduction of metabolism in human liver microsomes relative to 5,3′-dihydroxyflavone ([3]; methyl group substitution on the 4′ carbon): 50%
growth inhibition of 22Rv1 cells (22Rv1 cells): retained its ability to inhibit growth

O=c1cc(-c2ccc(O)c(O)c2)oc2cc(O)cc(O)c12 [Hit1, 5,7,3′,4′-tetrahydroxyflavone]
inhibition of ARE-dependent promoter activation by AR (in words) [1]: virtual absence of an effect
inhibition at 10 µM ([2]; Homo sapiens, HeLa, compound concentration of 10 μM, read-out: inhibition in the primary screen): 80 to 100%
